{"source": "ChEMBL document CHEMBL1127784", "about": "“Design and synthesis of peptidomimetic inhibitors of HIV-1 protease and renin. Evidence for improved transport” (J Med Chem, 1994)", "key": {"[1]": {"molecular_target": "Human immunodeficiency virus type 1 protease (Human immunodeficiency virus 1, UniProt Q72874)", "experiment": "In vitro inhibitory concentration against HIV-1 protease"}, "[2]": {"molecular_target": "Human immunodeficiency virus type 1 protease (Human immunodeficiency virus 1) (UniProt Q72874)", "experiment": "Tested for the relative potency against HIV-1 protease in the cellular antiviral assay"}, "Renin": {"molecular_target": "T1, Renin (Homo sapiens, UniProt P00797)", "T1 sequence (P00797 whole entry)": "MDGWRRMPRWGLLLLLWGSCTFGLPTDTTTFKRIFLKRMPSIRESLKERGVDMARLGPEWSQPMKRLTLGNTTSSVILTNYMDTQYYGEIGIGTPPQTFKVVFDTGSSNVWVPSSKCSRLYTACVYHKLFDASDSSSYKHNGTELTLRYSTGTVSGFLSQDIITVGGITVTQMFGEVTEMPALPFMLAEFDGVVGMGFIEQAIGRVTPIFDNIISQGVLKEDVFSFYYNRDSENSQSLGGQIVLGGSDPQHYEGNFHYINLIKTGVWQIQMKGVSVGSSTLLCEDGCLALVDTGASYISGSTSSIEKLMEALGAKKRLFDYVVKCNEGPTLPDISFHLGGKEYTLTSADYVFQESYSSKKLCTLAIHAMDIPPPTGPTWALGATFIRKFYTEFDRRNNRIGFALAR", "experiment": "In vitro inhibitory concentration against renin"}}}
{"compound": "CC(C)C[C@@]1(C2=C(O)[C@](Cc3ccccc3)(C[C@H](O)[C@H](Cc3ccccc3)NC(=O)OC(C)(C)C)N=C2)N=CC([C@@H](Cc2ccccc2)C(N)=O)=C1O", "values": [{"measurement": "IC50", "setting": "[1]", "result": 10, "unit": "nM"}, {"measurement": "IC95", "setting": "[2]", "result": 1500, "unit": "nM"}]}
{"compound": "CC(C)C[C@H](O)[C@H](O)[C@H](CC1CCCCC1)C1=C(O)[C@](CC(C)C)(C2=C(O)[C@@](CC(=O)N3CCOCC3)(Cc3ccccc3)N=C2)N=C1", "values": [{"measurement": "IC50", "setting": "Renin", "result": 18000, "unit": "nM"}]}
{"compound": "CC(C)C[C@@]1(C2=C(O)[C@](Cc3ccccc3)(C[C@H](O)[C@H](Cc3ccccc3)NC(=O)O[C@@H]3CCOC3)N=C2)N=CC([C@@H](Cc2ccccc2)C(N)=O)=C1O", "values": [{"measurement": "IC50", "setting": "[1]", "result": 1.3, "unit": "nM"}, {"measurement": "IC95", "setting": "[2]", "result": 800, "unit": "nM"}]}
{"compound": "CC(C)C[C@@H](C(=O)N[C@@H](CC1CCCCC1)[C@@H](O)[C@@H](O)CC(C)C)C1=C(O)[C@@](CC(=O)N2CCOCC2)(Cc2ccccc2)N=C1", "values": [{"measurement": "IC50", "setting": "Renin", "result": 600, "unit": "nM"}]}
{"compound": "CC(C)C[C@H](NC(=O)[C@H](Cc1ccccc1)C[C@H](O)[C@H](Cc1ccccc1)NC(=O)OC(C)(C)C)C(=O)N[C@@H](Cc1ccccc1)C(N)=O", "values": [{"measurement": "IC95", "setting": "[2]", "result": 6000, "unit": "nM"}]}
